Source: publication PMC8909834, “An Orally Bioavailable and Highly Efficacious Inhibitor of CDK9/FLT3 for the Treatment of Acute Myeloid Leukemia” (Cancers, 2022)

What was measured:
Assay in all cases: Kinase Hotspot radiolabel assay
Assay type in all cases: biochemical
Details in all cases: read-out: % Residual Activity
PDK1/PDPK1 = biological target: T1, PDK1/PDPK1 (Homo sapiens, UniProt O15530)
T1 construct: purchased Reaction Biology Corporation (Kinase HotSpot)
Method in brief: (§1)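 Hotspot radioactive kinase assay, compound fixed at 1 µM, broad 369-kinase selectivity screen.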

CLK4 = biological target: T2, CLK4 (Homo sapiens, UniProt Q9HAZ1)
T2 construct: purchased Reaction Biology Corporation (Kinase HotSpot)
Method in brief: as §1

FGFR3 = biological target: T3, FGFR3 (Homo sapiens, UniProt P22607)
T3 construct: purchased Reaction Biology Corporation (Kinase HotSpot)
Method in brief: as §1

BLK = biological target: T4, BLK (Homo sapiens, UniProt P51451)
T4 construct: purchased Reaction Biology Corporation (Kinase HotSpot)
T4 sequence (P51451 whole entry): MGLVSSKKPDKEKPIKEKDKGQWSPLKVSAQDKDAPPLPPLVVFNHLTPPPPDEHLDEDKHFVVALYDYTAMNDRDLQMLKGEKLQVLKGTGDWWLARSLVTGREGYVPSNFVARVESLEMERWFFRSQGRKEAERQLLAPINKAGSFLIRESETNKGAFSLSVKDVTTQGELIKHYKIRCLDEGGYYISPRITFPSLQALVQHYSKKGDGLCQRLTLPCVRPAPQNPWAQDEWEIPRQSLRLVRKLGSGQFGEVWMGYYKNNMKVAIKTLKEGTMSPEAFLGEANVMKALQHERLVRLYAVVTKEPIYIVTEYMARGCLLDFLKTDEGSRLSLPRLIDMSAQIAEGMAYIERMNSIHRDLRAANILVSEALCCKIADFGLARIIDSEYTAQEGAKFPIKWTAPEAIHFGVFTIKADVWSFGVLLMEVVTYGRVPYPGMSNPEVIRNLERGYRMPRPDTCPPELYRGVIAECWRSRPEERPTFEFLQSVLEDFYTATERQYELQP
Method in brief: as §1

TESK2 = biological target: T5, TESK2 (Homo sapiens, UniProt Q96S53)
T5 construct: purchased Reaction Biology Corporation (Kinase HotSpot)
Method in brief: as §1

NEK7 = biological target: T6, NEK7 (Homo sapiens, UniProt Q8TDX7)
T6 construct: purchased Reaction Biology Corporation (Kinase HotSpot)
T6 sequence (Q8TDX7 whole entry): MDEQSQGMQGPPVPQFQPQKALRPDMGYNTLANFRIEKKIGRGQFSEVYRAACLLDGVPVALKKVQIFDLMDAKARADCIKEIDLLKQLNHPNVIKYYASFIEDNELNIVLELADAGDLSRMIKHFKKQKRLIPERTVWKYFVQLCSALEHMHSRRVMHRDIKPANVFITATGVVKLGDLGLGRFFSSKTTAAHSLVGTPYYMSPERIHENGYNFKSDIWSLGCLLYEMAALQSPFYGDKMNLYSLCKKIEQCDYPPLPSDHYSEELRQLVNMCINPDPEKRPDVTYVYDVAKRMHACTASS
Method in brief: as §1

ROS/ROS1 = biological target: T7, ROS/ROS1 (Homo sapiens, UniProt P08922)
T7 construct: purchased Reaction Biology Corporation (Kinase HotSpot)
Method in brief: as §1

FLT4/VEGFR3 = biological target: T8, FLT4/VEGFR3 (Homo sapiens, UniProt P35916)
T8 construct: purchased Reaction Biology Corporation (Kinase HotSpot)
Method in brief: as §1

FER = biological target: T9, FER (Homo sapiens, UniProt P16591)
T9 construct: purchased Reaction Biology Corporation (Kinase HotSpot)
Method in brief: as §1

KHS/MAP4K5 = biological target: T10, KHS/MAP4K5 (Homo sapiens, UniProt Q9Y4K4)
T10 construct: purchased Reaction Biology Corporation (Kinase HotSpot)
Method in brief: as §1

FGFR1 = biological target: T11, FGFR1 (Homo sapiens, UniProt P11362)
T11 construct: purchased Reaction Biology Corporation (Kinase HotSpot)
Method in brief: as §1

EGFR = biological target: T12, EGFR (Homo sapiens, UniProt P00533)
T12 construct: purchased Reaction Biology Corporation (Kinase HotSpot)
Method in brief: as §1

IKKa/CHUK = biological target: T13, IKKa/CHUK (Homo sapiens, UniProt O15111)
T13 construct: purchased Reaction Biology Corporation (Kinase HotSpot)
Method in brief: as §1

ULK2 = biological target: T14, ULK2 (Homo sapiens, UniProt Q8IYT8)
T14 construct: purchased Reaction Biology Corporation (Kinase HotSpot)
Method in brief: as §1

P38g = biological target: T15, P38g (Homo sapiens, UniProt P53778)
T15 construct: purchased Reaction Biology Corporation (Kinase HotSpot)
T15 sequence (P53778 whole entry): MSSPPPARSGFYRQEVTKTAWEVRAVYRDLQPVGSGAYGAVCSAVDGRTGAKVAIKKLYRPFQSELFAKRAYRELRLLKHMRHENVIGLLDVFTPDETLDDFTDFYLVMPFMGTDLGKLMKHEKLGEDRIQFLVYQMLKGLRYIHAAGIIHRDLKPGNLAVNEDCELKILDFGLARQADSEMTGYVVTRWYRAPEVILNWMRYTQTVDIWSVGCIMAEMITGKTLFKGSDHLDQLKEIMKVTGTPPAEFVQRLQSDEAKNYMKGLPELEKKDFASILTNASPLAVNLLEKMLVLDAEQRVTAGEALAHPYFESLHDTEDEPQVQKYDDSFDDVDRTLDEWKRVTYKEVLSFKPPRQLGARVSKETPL
Method in brief: as §1

SIK3 = biological target: T16, SIK3 (Homo sapiens, UniProt Q9Y2K2)
T16 construct: purchased Reaction Biology Corporation (Kinase HotSpot)
Method in brief: as §1

PKCnu/PRKD3 = biological target: T17, PKCnu/PRKD3 (Homo sapiens, UniProt O94806)
T17 construct: purchased Reaction Biology Corporation (Kinase HotSpot)
T17 sequence (O94806 whole entry): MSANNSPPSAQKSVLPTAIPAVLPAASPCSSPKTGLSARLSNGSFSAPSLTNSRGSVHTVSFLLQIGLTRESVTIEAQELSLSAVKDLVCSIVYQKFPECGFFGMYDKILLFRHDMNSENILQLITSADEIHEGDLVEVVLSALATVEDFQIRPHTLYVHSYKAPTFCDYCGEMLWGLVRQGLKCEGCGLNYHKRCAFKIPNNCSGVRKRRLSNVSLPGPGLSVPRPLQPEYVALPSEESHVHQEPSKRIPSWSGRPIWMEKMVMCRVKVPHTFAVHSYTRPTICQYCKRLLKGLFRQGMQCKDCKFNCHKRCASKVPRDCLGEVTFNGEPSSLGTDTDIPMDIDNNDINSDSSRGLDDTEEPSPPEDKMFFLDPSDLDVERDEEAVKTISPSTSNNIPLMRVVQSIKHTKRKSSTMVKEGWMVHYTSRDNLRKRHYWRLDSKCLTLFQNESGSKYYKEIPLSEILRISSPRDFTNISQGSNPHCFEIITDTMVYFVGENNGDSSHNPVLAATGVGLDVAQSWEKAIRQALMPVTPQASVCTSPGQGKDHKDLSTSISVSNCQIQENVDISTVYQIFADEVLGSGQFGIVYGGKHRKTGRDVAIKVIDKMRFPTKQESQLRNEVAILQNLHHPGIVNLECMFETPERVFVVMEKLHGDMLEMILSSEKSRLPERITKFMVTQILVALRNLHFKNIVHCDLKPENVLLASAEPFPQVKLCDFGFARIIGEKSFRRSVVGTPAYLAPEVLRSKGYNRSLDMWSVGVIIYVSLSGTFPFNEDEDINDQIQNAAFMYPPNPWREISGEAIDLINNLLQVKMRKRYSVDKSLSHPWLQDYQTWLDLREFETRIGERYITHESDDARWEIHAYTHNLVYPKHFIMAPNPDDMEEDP
Method in brief: as §1

EPHA6 = biological target: T18, EPHA6 (Homo sapiens, UniProt Q9UF33)
T18 construct: purchased Reaction Biology Corporation (Kinase HotSpot)
Method in brief: as §1

ZAK/MLTK = biological target: T19, ZAK/MLTK (Homo sapiens, UniProt Q9NYL2)
T19 construct: purchased Reaction Biology Corporation (Kinase HotSpot)
Method in brief: as §1

MST4 = biological target: T20, MST4 (Homo sapiens, UniProt Q9P289)
T20 construct: purchased Reaction Biology Corporation (Kinase HotSpot)
Method in brief: as §1

LIMK2 = biological target: T21, LIMK2 (Homo sapiens, UniProt P53671)
T21 construct: purchased Reaction Biology Corporation (Kinase HotSpot)
T21 sequence (P53671 whole entry): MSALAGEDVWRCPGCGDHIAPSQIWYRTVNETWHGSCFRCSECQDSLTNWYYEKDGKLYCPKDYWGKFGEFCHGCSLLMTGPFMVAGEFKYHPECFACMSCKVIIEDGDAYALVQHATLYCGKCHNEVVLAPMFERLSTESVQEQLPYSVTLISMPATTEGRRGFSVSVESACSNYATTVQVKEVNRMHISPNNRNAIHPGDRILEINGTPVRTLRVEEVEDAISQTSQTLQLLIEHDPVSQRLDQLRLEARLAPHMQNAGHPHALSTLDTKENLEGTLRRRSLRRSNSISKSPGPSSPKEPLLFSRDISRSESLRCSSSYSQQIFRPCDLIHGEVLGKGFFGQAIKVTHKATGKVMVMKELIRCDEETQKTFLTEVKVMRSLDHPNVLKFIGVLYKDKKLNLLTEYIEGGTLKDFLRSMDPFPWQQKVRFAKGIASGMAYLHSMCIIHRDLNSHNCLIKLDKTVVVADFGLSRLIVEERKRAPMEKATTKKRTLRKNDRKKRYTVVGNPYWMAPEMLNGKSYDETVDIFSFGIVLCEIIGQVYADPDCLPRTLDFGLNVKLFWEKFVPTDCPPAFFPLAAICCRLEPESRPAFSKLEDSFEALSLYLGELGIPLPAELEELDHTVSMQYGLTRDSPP
Method in brief: as §1

ROCK1 = biological target: T22, ROCK1 (Homo sapiens, UniProt Q13464)
T22 construct: purchased Reaction Biology Corporation (Kinase HotSpot)
T22 sequence (Q13464 whole entry): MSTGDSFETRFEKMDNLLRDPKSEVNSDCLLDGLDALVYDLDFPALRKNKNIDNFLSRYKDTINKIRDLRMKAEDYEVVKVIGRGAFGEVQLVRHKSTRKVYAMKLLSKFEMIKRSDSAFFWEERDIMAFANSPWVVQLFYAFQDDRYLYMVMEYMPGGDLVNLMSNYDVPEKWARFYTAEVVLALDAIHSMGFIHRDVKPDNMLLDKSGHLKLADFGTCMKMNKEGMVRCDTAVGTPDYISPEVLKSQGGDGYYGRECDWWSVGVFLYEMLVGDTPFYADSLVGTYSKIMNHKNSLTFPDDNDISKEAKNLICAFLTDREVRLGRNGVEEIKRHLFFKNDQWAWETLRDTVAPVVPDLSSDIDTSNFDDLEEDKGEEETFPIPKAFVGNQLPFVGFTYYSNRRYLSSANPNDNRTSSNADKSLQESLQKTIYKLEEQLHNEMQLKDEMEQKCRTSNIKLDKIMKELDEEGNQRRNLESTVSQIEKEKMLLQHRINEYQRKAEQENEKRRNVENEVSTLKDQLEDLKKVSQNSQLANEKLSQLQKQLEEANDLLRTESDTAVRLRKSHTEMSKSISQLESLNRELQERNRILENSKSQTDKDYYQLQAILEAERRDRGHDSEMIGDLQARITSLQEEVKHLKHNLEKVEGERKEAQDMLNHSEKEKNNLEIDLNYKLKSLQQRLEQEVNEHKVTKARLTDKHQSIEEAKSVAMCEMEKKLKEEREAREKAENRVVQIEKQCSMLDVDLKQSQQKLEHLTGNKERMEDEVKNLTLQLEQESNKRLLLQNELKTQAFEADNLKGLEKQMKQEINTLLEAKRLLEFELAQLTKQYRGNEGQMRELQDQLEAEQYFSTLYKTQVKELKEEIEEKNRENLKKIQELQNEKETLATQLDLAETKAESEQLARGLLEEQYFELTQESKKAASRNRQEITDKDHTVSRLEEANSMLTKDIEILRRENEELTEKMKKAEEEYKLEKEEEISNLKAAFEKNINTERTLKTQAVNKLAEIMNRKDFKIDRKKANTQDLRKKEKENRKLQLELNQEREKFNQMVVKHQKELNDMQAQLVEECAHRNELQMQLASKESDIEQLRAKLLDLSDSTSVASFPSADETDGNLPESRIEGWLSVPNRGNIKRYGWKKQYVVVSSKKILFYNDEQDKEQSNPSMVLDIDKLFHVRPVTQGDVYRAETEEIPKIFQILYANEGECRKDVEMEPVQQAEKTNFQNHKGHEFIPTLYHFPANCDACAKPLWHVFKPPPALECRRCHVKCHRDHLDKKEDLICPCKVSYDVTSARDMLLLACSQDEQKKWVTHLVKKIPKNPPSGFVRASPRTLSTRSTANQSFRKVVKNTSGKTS
Method in brief: as §1

TYK1/LTK = biological target: T23, TYK1/LTK (Homo sapiens, UniProt P29376)
T23 construct: purchased Reaction Biology Corporation (Kinase HotSpot)
Method in brief: as §1

CK1a1L = biological target: T24, CK1a1L (Homo sapiens, UniProt Q8N752)
T24 construct: purchased Reaction Biology Corporation (Kinase HotSpot)
T24 sequence (Q8N752 whole entry): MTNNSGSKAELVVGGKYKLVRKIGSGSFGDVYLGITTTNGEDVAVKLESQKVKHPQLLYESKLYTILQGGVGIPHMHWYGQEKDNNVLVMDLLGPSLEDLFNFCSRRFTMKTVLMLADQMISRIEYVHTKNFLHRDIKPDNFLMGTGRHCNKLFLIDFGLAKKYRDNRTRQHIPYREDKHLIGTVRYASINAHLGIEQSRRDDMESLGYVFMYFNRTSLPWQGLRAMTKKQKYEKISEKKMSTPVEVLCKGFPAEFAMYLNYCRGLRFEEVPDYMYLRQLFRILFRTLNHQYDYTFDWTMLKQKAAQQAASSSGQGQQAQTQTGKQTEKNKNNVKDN
Method in brief: as §1

MEK3 = biological target: T25, MEK3 (Homo sapiens, UniProt P46734)
T25 construct: purchased Reaction Biology Corporation (Kinase HotSpot)
Method in brief: as §1

PKD2/PRKD2 = biological target: T26, PKD2/PRKD2 (Homo sapiens, UniProt Q9BZL6)
T26 construct: purchased Reaction Biology Corporation (Kinase HotSpot)
Method in brief: as §1

JAK1 = biological target: T27, JAK1 (Homo sapiens, UniProt P23458)
T27 construct: purchased Reaction Biology Corporation (Kinase HotSpot)
Method in brief: as §1

STK33 = biological target: T28, STK33 (Homo sapiens, UniProt Q9BYT3)
T28 construct: purchased Reaction Biology Corporation (Kinase HotSpot)
Method in brief: as §1

CDK14/cyclin Y (PFTK1) = biological target: T29, CDK14/cyclin Y (PFTK1) (Homo sapiens, UniProt O94921)
T29 construct: purchased Reaction Biology Corporation (Kinase HotSpot)
Method in brief: as §1

PLK3 = biological target: T30, PLK3 (Homo sapiens, UniProt Q9H4B4)
T30 construct: purchased Reaction Biology Corporation (Kinase HotSpot)
T30 sequence (Q9H4B4 whole entry): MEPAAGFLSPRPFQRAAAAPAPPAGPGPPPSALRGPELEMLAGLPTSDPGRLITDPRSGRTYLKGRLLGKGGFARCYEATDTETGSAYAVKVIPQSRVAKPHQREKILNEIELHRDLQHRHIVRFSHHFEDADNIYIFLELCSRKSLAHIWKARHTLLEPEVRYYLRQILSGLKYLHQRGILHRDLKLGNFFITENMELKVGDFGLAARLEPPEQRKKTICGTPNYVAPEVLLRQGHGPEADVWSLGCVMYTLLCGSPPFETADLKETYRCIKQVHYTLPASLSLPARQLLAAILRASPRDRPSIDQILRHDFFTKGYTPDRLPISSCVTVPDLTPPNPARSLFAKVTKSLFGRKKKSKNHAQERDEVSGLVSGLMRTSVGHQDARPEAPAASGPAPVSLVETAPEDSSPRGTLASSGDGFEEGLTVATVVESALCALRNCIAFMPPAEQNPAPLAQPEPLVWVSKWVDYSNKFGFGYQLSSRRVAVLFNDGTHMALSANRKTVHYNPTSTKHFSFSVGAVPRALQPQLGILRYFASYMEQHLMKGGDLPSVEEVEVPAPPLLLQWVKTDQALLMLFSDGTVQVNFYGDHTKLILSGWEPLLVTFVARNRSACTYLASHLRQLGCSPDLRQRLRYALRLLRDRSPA
Method in brief: as §1

In the case of `Cc1cnc(N[C@H]2CC[C@H](N)CC2)nc1-c1cnc2ccc(-c3ccccc3)cn12` [CDDD11-8], the remaining activity at 1 µM (PDK1/PDPK1) was 105%, the remaining activity at 1 µM (CLK4) was 26.1% and the remaining activity at 1 µM (FGFR3) was 92.8%. For the same compound, the remaining activity at 1 µM (BLK) was 47.2%, the remaining activity at 1 µM (TESK2) was 100% and the remaining activity at 1 µM (NEK7) was 102%. For the same compound, the remaining activity at 1 µM (ROS/ROS1) was 41.5%, the remaining activity at 1 µM (FLT4/VEGFR3) was 23.3% and the remaining activity at 1 µM (FER) was 70%. The remaining activity at 1 µM (KHS/MAP4K5) was 20.3%, the remaining activity at 1 µM (FGFR1) was 96.8% and the remaining activity at 1 µM (EGFR) was 82.2%. For the same compound, the remaining activity at 1 µM (IKKa/CHUK) was 98.5%, the remaining activity at 1 µM (ULK2) was 113% and the remaining activity at 1 µM (P38g) was 100%. The remaining activity at 1 µM (SIK3) was 59.9%, the remaining activity at 1 µM (PKCnu/PRKD3) was 35.1% and the remaining activity at 1 µM (EPHA6) was 88.4%. It also gave a remaining activity at 1 µM (ZAK/MLTK) of 83.3%, a remaining activity at 1 µM (MST4) of 92.9% and a remaining activity at 1 µM (LIMK2) of 93.8%. The remaining activity at 1 µM (ROCK1) was 76.3%, the remaining activity at 1 µM (TYK1/LTK) was 90.8% and the remaining activity at 1 µM (CK1a1L) was 90%. The remaining activity at 1 µM (MEK3) was 71.5%, the remaining activity at 1 µM (PKD2/PRKD2) was 62.7% and the remaining activity at 1 µM (JAK1) was 93.3%. It also gave a remaining activity at 1 µM (STK33) of 70.3%, a remaining activity at 1 µM (CDK14/cyclin Y (PFTK1)) of 68.8% and a remaining activity at 1 µM (PLK3) of 109%.
